Our source for the EC50 values is patent US12370183B2, “Compositions and methods for treating malaria” (Rutgers, The State University of New Jersey, priority 2020, dated 2025).

The subject of experiment [1] is 3D7 strain of Plasmodium falciparum. Nature of the experiment: Potency in the 3D7 strain of Plasmodium falciparum (EC50). The class given is cell-based. The settings on record: Plasmodium falciparum. The source says:
The present invention relates to methods of treating malaria with tetrahydrobenzonaphtyridine carboxanilide (TBN) derivatives and related pyrrolinones and hydrolysis products thereof. These compounds are active against Plasmodium falciparum strains that are resistant to multiple drugs currently on the market. The present invention further relates to novel compounds and pharmaceutical compositions comprising such compounds. The compounds have been synthesized and tested for their potency in the 3D7 strain of Plasmodium falciparum. Their cytotoxicity was also tested in the BJ human fibroblast line. No compounds show significant cytotoxicity.
(§1) A high-throughput screen performed against the Plasmodium parasite. About 8,000 compounds were screened. Each hit was tested against resistant P. falciparum variants K1, V1S, D10DD, ATP4 1247, and C2B. Potency against these assays assured that the chemotype acts through a mechanism distinct from that of halofantrine, chloroquine, mefloquine, pyrimethamine, proguanil, atovaquone, and (+)SJ733. The toxicity of the compounds was also measured by testing their lethality against a BJ cell line (human fibroblasts). No TBNs were toxic. A structure activity investigation was performed in order to improve the EC50 of the TBNs to the single-digit nanomolar range, as well as to increase the water solubility.
(§2) Substituents were installed at N−2 by using a variety of methods. Reductive alkylation (Abdel-Magid, A. F.; Mehrman, S. J. A Review on the Use of Sodium Triacetoxyborohydride in the Reductive Amination of Ketones and Aldehydes. Org. Process Res. Dev. 2006, 10 (5), 971-1031) was a dependable technique that produced over fifteen analogues. Conjugate additions and nucleophilic substitutions provided most of the others. A type of reductive alkylation that uses carboxylic acids instead of aldehydes (the Beller reduction) led to two analogues (Sorribes, I.; Junge, K.; Beller, M. Direct Catalytic N-Alkylation of Amines with Carboxylic Acids. J. Am. Chem. Soc. 2014, 136 (40), 14314-14319. Some of the compounds listed were synthesized through other means, or were derived from other TBNs. Compounds 66 and 128 were produced by the amidation of acids 132 and 133, which had the corresponding substitution already installed. TBNs 93, and 94 were produced from the Pfitzinger products formed from the condensation of isatin with (R)-1-(1-phenylethyl)piperidin-4-one (134) and (S)-1-(1-phenylethyl)piperidin-4-one (135), respectively.

Experiment [2] concerns resistant P. falciparum variant K1. The experiment can be described thus: Potency against resistant P. falciparum variant K1 (EC50). The class given is cell-based. The settings on record: Plasmodium falciparum, K1, read-out: K1 EC50 (μM). The method, then:
as §1, §2

Setting [3] is: 3D7, read-out: 3D7 Mean EC50 (μM).

Molecules are shown by their SMILES. Where two headings read alike, the source gives them in different places.

For `CCOCCN1CCc2nc3ccccc3c(C(=O)Nc3ccc(F)c(F)c3)c2C1` [Compound 103, N-(3,4-Difluorophenyl)-2-(2-ethoxyethyl)-1,2,3,4-tetrahydrobenzo[b][1,6]naphthyridine-10-carboxamide], the EC50 in experiment [1] (setting [3]) came to 0.451 ± 0.416 µM; in experiment [2], 0.0391 µM.
The corresponding values for `CC(C)N1CCc2nc3ccccc3c(C(=O)Nc3ccc(F)c(F)c3)c2C1` [Compound 96, N-(3,4-Difluorophenyl)-2-isopropyl-1,2,3,4-tetrahydrobenzo[b][1,6]naphthyridine-10-carboxamide] are 0.215 ± 0.269 µM and 0.177 µM.
Take `O=C(Nc1ccc(F)c(F)c1)c1c2c(nc3ccccc13)CCN(Cc1ncccc1F)C2` [Compound 118, N-(3,4-difluorophenyl)-2-((3-fluoropyridin-2-yl)methyl)-1,2,3,4-tetrahydrobenzo[b][1,6]naphthyridine-10-carboxamide]: the EC50 in experiment [1] (setting [3]) was determined as 3.41 ± 2.9 µM.
For the molecule `O=C(Nc1ccc(F)c(F)c1)c1c2c(nc3ccccc13)CCN(CC1CC1)C2` [Compound 101, 2-(Cyclopropylmethyl)-N-(3,4-difluorophenyl)-1,2,3,4-tetrahydrobenzo[b][1,6]naphthyridine-10-carboxamide], the EC50 in experiment [1] (setting [3]) worked out at 0.429 ± 0.303 µM; in experiment [2] it was 0.272 µM.
As to `O=C(Nc1ccc(F)c(F)c1)c1c2c(nc3ccccc13)CCN(CCO)C2` [Compound 120, N-(3,4-Difluorophenyl)-2-(2-hydroxyethyl)-1,2,3,4-tetrahydrobenzo[b][1,6]naphthyridine-10-carboxamide], the concentration giving a half-maximal response (EC50) in experiment [1] (setting [3]) stood at 3.84 ± 2.08 µM; in experiment [2], 2.2 ± 0.268 µM.
For `CC(c1ccccn1)N1CCc2nc3c(c(C(=O)Nc4ccc(F)c(F)c4)c2C1)CCCC3` (stereo not drawn) [Compound 140, N-(3,4-Difluorophenyl)-2-(1-(pyridin-2-yl)ethyl)-1,2,3,4,6,7,8,9-octahydrobenzo[b][1,6]naphthyridine-10-carboxamide], the EC50 in experiment [1] (setting [3]) was 1.5 ± 0.389 µM; in experiment [1] (3D7, read-out: 3D7 Mean EC50 of the TBN (μM)) it was 0.0603 ± 0.0234 µM; in experiment [2] it was 0.558 ± 0.123 µM.
Take `Cn1ccnc1CN1CCc2nc3ccccc3c(C(=O)Nc3ccc(F)c(F)c3)c2C1` [Compound 127, N-(3,4-Difluorophenyl)-2-((1-methyl-1H-imidazol-2-yl)methyl)-1,2,3,4-tetrahydrobenzo[b][1,6]naphthyridine-10-carboxamide]: the EC50 in experiment [1] (setting [3]) is 10.1 ± 6.39 µM.
As for `C[C@H](c1ccccc1)N1CCc2nc3ccccc3c(C(=O)Nc3ccc(F)c(F)c3)c2C1` [Compound 93, (R)—N-(3,4-Difluorophenyl)-2-(1-phenylethyl)-1,2,3,4-tetrahydrobenzo[b][1,6]naphthyridine-10-carboxamide], the EC50 in experiment [1] (setting [3]) was determined as 0.131 ± 0.00623 µM; in experiment [2], 0.064 µM.
`CS(=O)(=O)CCN1CCc2nc3ccccc3c(C(=O)Nc3ccc(F)c(F)c3)c2C1` [Compound 130, N-(3,4-Difluorophenyl)-2-(2-(methylsulfonyl)ethyl)-1,2,3,4-tetrahydrobenzo[b][1,6]naphthyridine-10-carboxamide]: the EC50 in experiment [1] (setting [3]) was more than 14.7 µM.
Regarding `O=C(Nc1ccc(F)c(F)c1)c1c2c(nc3cc(Cl)ccc13)CCN(CCc1ccccc1)C2` [Compound 157, 7-Chloro-N-(3,4-difluorophenyl)-2-phenethyl-1,2,3,4-tetrahydrobenzo[b][1,6]naphthyridine-10-carboxamide], the concentration for a half-maximal effect (EC50) in experiment [1] (setting [3]) was 0.0179 ± 0.01 µM.
As for `O=C(Nc1ccc(F)c(F)c1)c1c2c(nc3ccccc13)CCN(CCc1ccccn1)C2` [Compound 98, N-(3,4-Difluorophenyl)-2-(2-(pyridin-2-yl)ethyl)-1,2,3,4-tetrahydrobenzo[b][1,6]naphthyridine-10-carboxamide], the EC50 in experiment [1] (setting [3]) was found to be 0.329 ± 0.0232 µM.
For `C[C@@H](c1ccccc1)N1CCc2nc3ccccc3c(C(=O)Nc3ccc(F)c(F)c3)c2C1` [Compound 94, (S)—N-(3,4-Difluorophenyl)-2-(1-phenylethyl)-1,2,3,4-tetrahydrobenzo[b][1,6]naphthyridine-10-carboxamide], the EC50 in experiment [1] (setting [3]) is 0.154 ± 0.0285 µM; in experiment [2] it was 0.148 µM.
Turning to `CC(c1ncccn1)N1CCc2nc3ccccc3c(C(=O)Nc3ccc(F)c(F)c3)c2C1` (stereo not drawn) [Compound 104, N-(3,4-Difluorophenyl)-2-(1-(pyrimidin-2-yl)ethyl)-1,2,3,4-tetrahydrobenzo[b][1,6]naphthyridine-10-carboxamide], the concentration for a half-maximal effect (EC50) in experiment [1] (setting [3]) is 0.453 ± 0.238 µM; in experiment [2] it was 0.117 ± 0.0339 µM.
For the molecule `CCN1CCc2nc3ccccc3c(C(=O)Nc3ccc(F)c(F)c3)c2C1` [Compound 128, N-(3,4-Difluorophenyl)-2-ethyl-1,2,3,4-tetrahydrobenzo[b][1,6]naphthyridine-10-carboxamide], the EC50 in experiment [1] (setting [3]) is more than 12.2 µM.
On to `CC(C)(C)OC(=O)N1CCC(N2CCc3nc4ccccc4c(C(=O)Nc4ccc(F)c(F)c4)c3C2)CC1` [Compound 89, tert-Butyl 4-(10-((3,4-difluorophenyl)carbamoyl)-3,4-dihydrobenzo[b][1,6]naphthyridin-2(1H)-yl)piperidine-1-carboxylate], for which the EC50 in experiment [1] (setting [3]) came to 0.0257 ± 0.00583 µM.
Regarding `O=C(Nc1ccc(F)c(F)c1)c1c2c(nc3ccccc13)CCN(Cc1cncc(F)c1)C2` [Compound 115, N-(3,4-Difluorophenyl)-2-((5-fluoropyridin-3-yl)methyl)-1,2,3,4-tetrahydrobenzo[b][1,6]naphthyridine-10-carboxamide], in experiment [1] (setting [3]), the EC50 worked out at 1.96 ± 2.34 µM.
In the case of `O=C(Nc1ccc(F)c(F)c1)c1c2c(nc3ccccc13)CCN(CCN1C(=O)c3ccccc3C1=O)C2` [Compound 121, N-(3,4-Difluorophenyl)-2-(2-(1,3-dioxoisoindolin-2-yl)ethyl)-1,2,3,4-tetrahydrobenzo[b][1,6]naphthyridine-10-carboxamide], the EC50 in experiment [1] (setting [3]) is 3.95 ± 1.07 µM.
Regarding `CCOCC(=O)N1CCc2nc3ccccc3c(C(=O)Nc3ccc(F)c(F)c3)c2C1` [Compound 119, N-(3,4-Difluorophenyl)-2-(2-ethoxyacetyl)-1,2,3,4-tetrahydrobenzo[b][1,6]naphthyridine-10-carboxamide], the EC50 in experiment [1] (setting [3]) is 3.49 ± 0.831 µM.
Still for that read-out and setting: in the case of `O=C(Nc1ccc(F)c(F)c1)c1c2c(nc3ccccc13)CCNC2` [Compound 88, N-(3,4-Difluorophenyl)-1,2,3,4-tetrahydrobenzo[b][1,6]naphthyridine-10-carboxamide] it was 10.3 ± 10.2 µM; in that of `O=C(Nc1ccc(F)c(F)c1)c1c2c(nc3ccccc13)CCN(CC(F)(F)F)C2` [Compound 123, N-(3,4-Difluorophenyl)-2-(2,2,2-trifluoroethyl)-1,2,3,4-tetrahydrobenzo[b][1,6]naphthyridine-10-carboxamide], 7.69 ± 8.61 µM; in that of `O=C(Nc1ccc(F)c(F)c1)c1c2c(nc3ccc(Cl)cc13)CCN(CCc1ccccc1)C2` [Compound 158, 8-Chloro-N-(3,4-difluorophenyl)-2-phenethyl-1,2,3,4-tetrahydrobenzo[b][1,6]naphthyridine-10-carboxamide], 0.0153 ± 0.00774 µM.
In the case of `O=C1c2c3c(nc4cc(Cl)ccc24)CCN(CCc2ccccc2)C3N1c1ccc(F)c(F)c1` (stereo not drawn) [Compound 172, 8-Chloro-2-(3,4-difluorophenyl)-3-phenethyl-2a,3,4,5-tetrahydrobenzo[b]pyrrolo[4,3,2-de][1,6]naphthyridin-1(2H)-one], the figures for the concentration giving a half-maximal response (EC50) in experiment [1] (3D7) and in experiment [1] (setting [3]) were 0.0071 µM and 0.0071 ± 0.000461 µM, respectively.
For `Cn1ccc(CN2CCc3nc4ccccc4c(C(=O)Nc4ccc(F)c(F)c4)c3C2)n1` [Compound 114, N-(3,4-Difluorophenyl)-2-((1-methyl-1H-pyrazol-3-yl)methyl)-1,2,3,4-tetrahydrobenzo[b][1,6]naphthyridine-10-carboxamide], in experiment [1] (setting [3]), the concentration for a half-maximal effect (EC50) was 1.89 ± 0.817 µM.
Take `Cn1cnc(CN2CCc3nc4ccccc4c(C(=O)Nc4ccc(F)c(F)c4)c3C2)c1` [Compound 117, N-(3,4-Difluorophenyl)-2-((1-methyl-1H-imidazol-4-yl)methyl)-1,2,3,4-tetrahydrobenzo[b][1,6]naphthyridine-10-carboxamide]: in experiment [1] (setting [3]), the EC50 is 2.4 ± 1.39 µM.
As for `COC(=O)CN1CCc2nc3ccccc3c(C(=O)Nc3ccc(F)c(F)c3)c2C1` [Compound 125, Methyl 2-(10-((3,4-difluorophenyl)carbamoyl)-3,4-dihydrobenzo[b][1,6]naphthyridin-2(1H)-yl)acetate], in experiment [1] (setting [3]), the EC50 was 9.11 ± 7.61 µM.
In the case of `CC(=O)O[C@H]1CO[C@H]2[C@@H]1OC[C@@H]2Oc1cccc(NC(=O)c2c3c(nc4ccccc24)CCN(CCc2ccccc2)C3)c1` [Compound 147, (3S,3aR,6S,6aR)-6-(3-(2-Phenethyl-1,2,3,4-tetrahydrobenzo[b][1,6]naphthyridine-10-carboxamido)phenoxy)hexahydrofuro[3,2-b]furan-3-yl acetate], the EC50 in experiment [1] (3D7, read-out: potency (EC50)) was determined as 3.87 µM.

As usually defined, the EC50 is the midpoint of the concentration-response curve.
